Assay [1] relates to OVA induced atopic dermatitis (AD) mouse model. The assay can be described thus: OVA induced atopic dermatitis (AD) mouse model, skin inflammation status scoring. Particulars: AD model mice, topical patch for 3 consecutive days; total score 0-12; 6 mice per group. It is filed as in vivo, BALB/c mice.
Protocol: 10 μg OVA was mixed with 2 mg of aluminum hydroxide in 200 μL of phosphate buffer (PBS) solution, intraperitoneally injected to sensitize mice, once every week (at day 0, 7 and 14), each mouse was injected 3 times, 200 μL each time. On day 14, mice were anesthetized using pentobarbital intraperitoneal injection. […] The OVA patch was prepared by wetting a 1.5×1.5 cm^2 sterile gauze in a solution of 1 mg/mL of OVA (dissolved in PBS) (approximately 100 μL of OVA solution), and was attached using a transparent dressing to the back skin after epilation and replaced daily for 3-7 days to develop dermatitis manifestation, and the status of the back skin of the mice was recorded photographically on day 4~5 after inducing mouse dermatitis (the dermatitis manifestation was most obvious), and the skin inflammation status was scored. […]
Skin inflammation status scores assess dermatitis severity clinically. The total score was 0 to 12, evaluated from four aspects, edema, erythema, scaling and erosion, respectively, an individual score was 0-3 (0, no; 1, mild; 2, moderate; 3, severe), and the final score was the sum of each individual term [SCHWARTZ C, et al. Spontaneous atopic dermatitis in mice with a defective skin barrier is independent of ILC2 and mediated by IL-1β.
In assay [2] the test system is CD25+FoxP3+ cells in spleen CD3+CD4+ lymphocytes and PD-1+ cells in CD3+CD4+CD25+FoxP3+ cells. The experiment in a line: Intraperitoneal injection in physiological model mice, spleen Treg and PD-1 by flow cytometry. It is filed as in vivo, BALB/c mice.
Description: We intraperitoneally injected PEG-IL-2 modified with non-branched PEG of different molecular weight sizes in physiological model mice, and detected FoxP3+ regulatory T cells and the expression of PD-1 in spleen cells on day 4.

Marks after values point to notes of the source that are not given here.

As to `CCCC1O[C@@H]2C[C@H]3[C@@H]4CCC5=CC(=O)C=C[C@]5(C)[C@H]4[C@@H](O)C[C@]3(C)[C@]2(C(=O)CO)O1` (stereo partly drawn) [Budesonide alone, budesonide], the “Dermatitis score (χ ± s)” value in assay [1] is on record as 2.333 ± 1.211*^.
For the molecule “normal IL-2: recombinant human interleukin 2 not modified with PEG, SEQ ID NO: 1, 15 kD”, the “up-regulation of FoxP3+ regulatory T cells in spleen (in words)” value in assay [2] (detected on day 4) was “did not up-regulate Tregs”. Moreover, the “expression of PD-1 by regulatory T cells (in words)” value in assay [2] (spleen, day 4) is “can promote the expression of PD-1”.
